Results on eleven compounds are retold here after patent US20100196874A1, “METHOD OF DRUG DESIGN” (priority 2006, published 2010).

Data set [1] relates to CVB3. The settings on record: for IC50: read-out: IC5, HeLa cell culture with CVB3; for order of antiviral potency: CVB3, same order as against HRV2; for antiviral effect against CVB3 relative to cytotoxic effect: % virus yield versus % cell metabolism, HeLa cells, FIG. 1.
From the text: (§1) The toxicity of the compounds (CC50, being the concentration causing 50% reduction in cell metabolism as measured by Alamar Blue assay) reflects the relative activity of each compound against cellular ion channels, while the antiviral activity (IC50) reflects the relative activity of each compound against the RdRP of CVB3.
Data set [2] has as its system CVB3. Kind of data set: Time of addition of drugs to CVB3-infected cultures, total virus yield. In kind it is cell-based, Coxsackievirus B3. The settings on record: 400 μM amiloride or 25 μM EIPA, added up to 2 hours post-infection, yield at 10 hours. The method, then: Cultures were incubated until 10 hours post-infection, then the total virus yield (released virus+intracellular virus) was quantitated (FIG. 2A). Kinetics of virus production was measured in parallel (FIG. 2B). […] This contrasts with well-known antiviral drugs active against picornaviruses such as Pleconaril, which prevent uncoating and/or binding to the cell.

Data set [3] relates to CVB3. Put plainly: Release of virus from CVB3-infected cells. In kind it is cell-based, Coxsackievirus B3. The settings on record: compared to untreated controls, FIG. 3.
Data set [4] deals with CVB3. Put plainly: Reversibility: compounds removed at various times post-infection, CVB3 yield at 10 hours. In kind it is cell-based, Coxsackievirus B3. Particulars: compounds removed at 1, 2 or 4 hours post-infection, HeLa cells. The method, then: Virus replication was then allowed to continue until 10 hours post-infection.
Data set [5] has as its system CVB3. Kind of data set: Viral assembly: viral RNA (3H-uridine) versus virus produced. It counts as cell-based, Coxsackievirus B3. Particulars: 3H-uridine labelling; 25 micromolar EIPA (compared with 500 micromolar guanidine), 400 micromolar amiloride. The method, then:
In a further set of experiments, the effect of the drugs on viral assembly was determined. […] Guanidine is well known to inhibit the initiation of viral RNA replication through its effect on the viral 2C protein, but has no effect on the assembly of virus from RNA that is replicated in its presence. Infected cells were incubated with 3H-uridine to label viral RNA, and RNA was detected by electrophoresis and autoradiography.

The test system of data set [6] is CVB3. Put plainly: Viral RNA synthesis, 3H-uridine pulse label. In kind it is cell-based, Coxsackievirus B3. Particulars: treated between four and five hours post infection, compared to untreated cells. The method, then:
A standard method to determine which of the two processes is inhibited directly is to add the inhibitor and pulse-label viral RNA and proteins at the time in the replication cycle when sufficient amounts of RNA and proteins have been produced to allow continuation of one process independent of the other.
In a further set of experiments, the effect of the drugs on viral protein synthesis (see FIG. 5) and viral RNA synthesis (see FIG. 6) was determined. Cells were infected as described in Examples 2 and 3, and drugs were added to cells at four hours post infection. Radioactive labels (35S-methionine for proteins, 3H-uridine for RNA) were added to cells from 4.5-5 h post infection. Treatment with GHCl, which inhibits enteroviral RNA replication but not protein synthesis was used as a control.

Data set [7] has as its system amiloride-resistant and guanidine-resistant CVB3 clones. Kind of data set: Cross-resistance of amiloride-resistant and guanidine-resistant virus clones. In kind it is cell-based, Coxsackievirus B3.
Data set [8] deals with CVB3 mutants S299T, A372V, D48G. Kind of data set: Drug sensitivity of CVB3 carrying single introduced mutations. In kind it is cell-based, Coxsackievirus B3. The settings on record: for effect of D48G mutation on virus sensitivity: 2A protein mutation by itself; for sensitivity of viruses containing S299T or A372V mutations: 3D protein mutations, FIG. 11.
The next data set deals with HRV2. Particulars: cited from earlier work.
Where [9] appears, read: concentration causing 50% reduction in cell metabolism, Alamar Blue assay, HeLa.

Where two headings read alike, the source gives them in different places.

From the text for HeLa cells: as §1

In the case of `N=C(NCc1ccc(Cl)cc1Cl)NC(=O)c1nc(Cl)c(N)nc1N` [2,4-DCB], in the data set on CVB3 [1], the IC50 was 5 µM. This compound returned a CC5 in the data set on HeLa cells (setting [9]) of 14 µM.
For `N/C(=N\C(=O)c1nc(Cl)c(N)nc1N)NCc1ccc(Cl)c(Cl)c1` [3,4-DCB] the same measures were 5 µM and 14 µM.
`NC(N)=NC(=O)c1nc(Cl)c(N)nc1N` [Amiloride, 3,5-diamino-6-chloro-N-(diaminomethylidene) pyrazine-2-carboxamide]: the “reduction of virus replication by time of addition” value in the data set with CVB3 [2] was “fully effective”. Further, in the data set with CVB3 [3], the “proportion of extracellular virus” value is “slight increase”. Also, in the data set with CVB3 [4], the “CVB3 production at 10 hours post-infection after removal of compound” value is “equivalent to that of the untreated cultures”. Moreover, in the data set on CVB3 [5], the “amount of viral RNA produced” value is on record as “greatly reduced”. For the same compound, in the data set on CVB3 [6], the “amount of viral RNA synthesis” value was “dramatically reduced”. For the same compound, the “sensitivity of guanidine-resistant virus clones to antiviral effect” value in data set [7] (six clones of guanidine-resistant virus) is given as “remained sensitive”. Moreover, in data set [8], the “effect of D48G mutation on virus sensitivity” value is reported as “no significant effect” and the “sensitivity of viruses containing S299T or A372V mutations” value is “reduced sensitivity”. Also, in the data set on CVB3 [1], the “order of antiviral potency” value is given as “EIPA>benzamil>amiloride” and the IC50 came to 50 µM. In the data set with HeLa cells, the CC5 was more than 1000 µM. Moreover, in the data set on HRV2, the “effect upon HRV2 RNA replication” value is listed as “no effect”.
As to `N/C(=N\C(=O)c1nc(Cl)c(N)nc1N)NCc1ccccc1` [Benzamil], in the data set with CVB3 [1], the “antiviral effect against CVB3 relative to cytotoxic effect” value is “selective antiviral effect”, the “order of antiviral potency” value is “EIPA>benzamil>amiloride” and the IC50 amounted to 10 µM. The CC5 in the data set with HeLa cells (setting [9]) turned out to be 100 µM.
In the case of `CNC(N)=NC(=O)c1cc(Cl)ccc1O` [CHMG], the IC50 in the data set on CVB3 [1] is 9 µM. In the data set on HeLa cells (setting [9]), the CC5 came out at 155 µM.
For `CN(C)c1nc(N)c(C(=O)N=C(N)N)nc1Cl` [DMA] the same measures were 90 µM and 190 µM.
Turning to `CCN(c1nc(N)c(C(=O)N=C(N)N)nc1Cl)C(C)C` [EIPA, 5-(N-ethyl-N-isopropyl)amiloride], the “reduction of virus replication by time of addition” value in the data set on CVB3 [2] is on record as “fully effective”. For the same compound, the “proportion of extracellular virus” value in the data set with CVB3 [3] is “slight increase”. Moreover, in the data set on CVB3 [4], the “CVB3 production at 10 hours post-infection after removal of compound” value was “equivalent to that of the untreated cultures”. Besides, the “amount of viral RNA produced” value in the data set with CVB3 [5] was “equivalent amounts of viral RNA”. Further, the “amount of viral RNA synthesis” value in the data set on CVB3 [6] is recorded as “dramatically reduced”. In data set [8], the “effect of D48G mutation on virus sensitivity” value is “no significant effect” and the “sensitivity of viruses containing S299T or A372V mutations” value is listed as “reduced sensitivity”. Further, in the data set with CVB3 [1], the “antiviral effect against CVB3 relative to cytotoxic effect” value is recorded as “selective antiviral effect”, the “order of antiviral potency” value is “EIPA>benzamil>amiloride” and the IC50 came to 2 µM. This compound returned a CC5 with HeLa cells (setting [9]) of 25 µM. Moreover, the “effect upon HRV2 RNA replication” value in the data set on HRV2 is on record as “no effect”. In addition, in the data set on HRV2 (previous data), the “effect on HRV2 release” value was “inhibitory effect”.
As for `NC(N)=NC(=O)c1nc(Cl)c(N2CCCCCC2)nc1N` [HMA, 5-(N,N-hexamethylene)amiloride], in the data set with CVB3 [1], the “antiviral effect against CVB3 relative to cytotoxic effect” value is “selective antiviral effect” and the IC50 is 2 µM. Further, the CC5 with HeLa cells worked out at 25 µM.
With `CC(C)CN(C)c1nc(N)c(C(=O)N=C(N)N)nc1Cl` [MIBA], in the data set with CVB3 [1], the IC50 is 2 µM. In the data set with HeLa cells (setting [9]), this compound showed a CC5 of 25 µM.
As to `Cl.N=C(N)N` [guanidine, guanidine hydrochloride], the “sensitivity of amiloride-resistant virus clones to antiviral effect” value in data set [7] (six clones of amiloride-resistant virus) was “remained sensitive”.
Consider CHPG, for which, in the data set with CVB3 [1], the IC50 was found to be 2 µM. The compound also registered a CC5 in the data set with HeLa cells (setting [9]) of 15 µM.
